Test results: PubChem BioAssay (NCI)
Where “and” joins values, the source holds several entries; their conditions need not be identical. Equal values may be shown once.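 How tested: cells in 96-well plates exposed to compound for 48 hours at five concentrations. Here, GI50 denotes the concentration required for 50% inhibition of growth. TGI is the concentration that stops growth completely.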

Assays:
Test in all cases: growth of human tumour cells (NCI), 48 h
[1] = system: OVCAR-8 ovarian
[2] = system: MCF7 breast
[3] = system: LOX IMVI melanoma
[4] = system: MDA-MB-231 breast
[5] = system: OVCAR-4 ovarian
[6] = system: A549 NSCLC
[7] = system: NCI-H460 lung
[8] = system: NCI-H226 lung
[9] = system: SF-539 CNS
[10] = system: RPMI-8226 leukemia

Compound	GI50 [1]	TGI [1]	GI50 [2]	TGI [2]	GI50 [3]	TGI [3]	GI50 [4]	TGI [4]	GI50 [5]	TGI [5]	GI50 [6]	TGI [6]	GI50 [7]	TGI [7]	GI50 [8]	TGI [8]	GI50 [9]	TGI [9]	GI50 [10]	TGI [10]
N#CC1=C(/N=C/c2ccccc2)Oc2c(ccc3ccccc23)C1c1ccccc1 (centres undefined)	0.708 µM	> 100 µM	0.421 µM	> 100 µM	0.559 µM	> 100 µM	1.31 µM	20.5 µM	0.698 µM	> 100 µM	0.95 µM	> 100 µM	0.386 µM	> 39.3 µM	1.13 µM	> 100 µM	0.335 µM	2.06 µM	0.441 µM	> 100 µM
CSc1nc2sc3c(c2c(=O)n1-c1ccc(C(C)C)cc1)CCC(=O)C3	2.12 µM	4.49 µM	3.14 µM	10.6 µM	1.77 µM	3.27 µM	2.47 µM	6.3 µM	2.34 µM	5.86 µM	3.77 µM	20.7 µM	2.27 µM	5.1 µM	1.99 µM	4.68 µM	2.05 µM	4.1 µM	2.1 µM	5.07 µM
O=C(O)CCC(=O)c1ccc2sc3ccccc3c2c1	–	> 100 µM	–	> 100 µM	–	> 100 µM	–	> 100 µM	–	> 100 µM	–	> 100 µM	–	> 100 µM	–	> 100 µM	–	> 100 µM	–	> 100 µM
C=CCN1CC(=O)N2[C@@H](Cc3ccc(O)cc3F)C(=O)N(Cc3cccc(N4CC(N5CCN(CC)CC5)C4)n3)C[C@@H]2N1C(=O)NCc1ccccc1	0.0295 µM	–	0.524 µM	> 100 µM	0.0339 µM	0.584 µM	0.0216 µM	0.139 µM	0.0329 µM	> 100 µM	0.0412 µM	> 100 µM	0.038 µM	> 100 µM	0.0461 µM	> 100 µM	0.0317 µM	0.288 µM	0.05 µM	26.2 µM
Cn1cc(C2=C(c3cccc(OC[C@@H](O)CO)c3)C(=O)NC2=O)c2ccccc21	> 25 µM	> 25 µM	2.07 µM	> 25 µM	14.8 µM	> 25 µM	> 25 µM	> 25 µM	> 16.4 µM	> 25 µM	> 25 µM	> 25 µM	> 25 µM	> 25 µM	16.9 µM	> 25 µM	> 19.4 µM	> 25 µM	> 25 µM	> 25 µM
COC(=O)CCCCC(=O)c1c(C)[nH]c(/C=C2\N=C(c3ccc[nH]3)C=C2OC)c1C	0.451 µM	1.76 µM	0.723 µM	2.09 µM	0.0416 µM	0.135 µM	0.269 µM	1.65 µM	1.14 µM	2.47 µM	1.25 µM	3.28 µM	3.03 µM	10.1 µM	1.17 µM	2.87 µM	1.15 µM	2.47 µM	0.428 µM	2.34 µM
O=C(O)c1cccc(C(=O)O)c1S(=O)Cc1ccccc1 (centres undefined)	–	> 100 µM	–	> 100 µM	–	> 100 µM	–	> 100 µM	–	> 100 µM	–	> 100 µM	–	> 100 µM	–	> 100 µM	–	> 100 µM	–	> 100 µM
Cc1cccc2c3c(sc12)C(c1ccc(Cl)cc1)C(C#N)=C(N)O3 (centres undefined)	0.471 µM	6.89 µM	0.257 µM	4.64 µM	0.663 µM	3.92 µM	0.679 µM	7.74 µM	2.08 µM	18.5 µM	0.486 µM	9.66 µM	0.37 µM	3.92 µM	0.763 µM	7.46 µM	0.299 µM	1.14 µM	0.423 µM	6.33 µM
O=C1OC(C(O)CO)C(O)=C1O (centres undefined)	1550 µM and 1510 µM	3050 µM and 3190 µM	233 µM and 489 µM	502 µM and 1100 µM	340 µM and 426 µM	1000 µM and 1460 µM	1460 µM and 1440 µM	2820 µM and 2960 µM	1840 µM and 1970 µM	3520 µM and 3940 µM	2510 µM and > 4270 µM	6010 µM and > 6460 µM	> 10000 µM	> 10000 µM	2150 µM and 4450 µM	4870 µM and > 6830 µM	1900 µM and 1390 µM	3360 µM and 1830 µM	1910 µM and 2400 µM	4500 µM and 6610 µM
CC(C)(O)CNc1nc(Nc2ccnc(C(F)(F)F)c2)nc(-c2cccc(C(F)(F)F)n2)n1	26.3 µM	84.8 µM	18.2 µM	42.5 µM	17.3 µM	32.6 µM	19.1 µM	45.6 µM	23.9 µM	86.9 µM	19.5 µM	39.4 µM	23.8 µM	60.8 µM	20.8 µM	58.2 µM	16.6 µM	42.7 µM	18.5 µM	56.1 µM
Oc1cccc2ccc(N/N=C/c3cc(CN4CCOCC4)c(O)c4ncccc34)nc12	0.0207 µM	2.09 µM	0.021 µM	1.54 µM	0.0426 µM	1.41 µM	0.0441 µM	2.25 µM	0.0339 µM	2.14 µM	0.0245 µM	1.23 µM	< 0.0104 µM	1.2 µM	0.533 µM	5.57 µM	0.0352 µM	1.64 µM	0.0154 µM	10.5 µM
NS(=O)(=O)c1ccc(-c2cc3ccncc3cc2OCc2ccccc2)cc1	8.19 µM	> 25 µM	14.5 µM	> 25 µM	> 22.6 µM	> 25 µM	14.6 µM	> 25 µM	> 19.6 µM	> 25 µM	8.59 µM	> 25 µM	9.77 µM	> 25 µM	> 19.9 µM	> 25 µM	7.17 µM	> 25 µM	> 18.2 µM	> 25 µM
Cc1ccc(/C(C#N)=C/c2cccc([N+](=O)[O-])c2)cc1	–	> 100 µM	–	> 100 µM	–	> 100 µM	–	52.8 µM	–	> 100 µM	–	> 100 µM	–	> 100 µM	–	> 100 µM	–	> 100 µM	–	> 100 µM
Oc1ccc(C(c2ccc(O)cc2)c2ccc(Br)cn2)cc1	0.276 µM	0.786 µM	0.264 µM	0.732 µM	0.282 µM	0.895 µM	13.4 µM	49.2 µM	0.101 µM	0.525 µM	1.95 µM	60 µM	20.7 µM	49.1 µM	0.243 µM	0.651 µM	5.28 µM	27.6 µM	15.6 µM	58.6 µM
Cc1cc[n+]2c(c1)-c1cc(C)cc[n+]1CC2	–	> 100 µM	–	> 100 µM	–	> 100 µM	–	> 100 µM	–	> 100 µM	–	> 100 µM	–	> 100 µM	–	> 100 µM	–	> 100 µM	–	> 100 µM
OC(C#Cc1ccccc1)(c1ccccc1)c1ccccc1	–	> 100 µM	–	45.7 µM	–	38 µM	–	> 100 µM	–	> 100 µM	–	52.9 µM	–	50.6 µM	–	87.3 µM	–	> 100 µM	–	47.4 µM
CC(=O)NCc1cccc(C#Cc2cncnc2Nc2ccc(OCc3cccc(F)c3)c(Cl)c2)c1	9.58 µM	> 25 µM	9.18 µM	> 25 µM	9.44 µM	> 25 µM	> 25 µM	> 25 µM	12.9 µM	> 25 µM	6.47 µM	> 25 µM	10.6 µM	> 25 µM	> 21.1 µM	> 25 µM	> 21.1 µM	> 25 µM	15.4 µM	> 25 µM
CCCCCCNC(=O)Oc1ccc(/C(=C(\C)c2ccc(Cl)cc2)c2ccc(OCCN3CCCCC3)cc2)cc1	5.53 µM	11.7 µM	0.104 µM	5.38 µM	4.83 µM	9.41 µM	5.35 µM	10.2 µM	2.35 µM	7.73 µM	4.73 µM	10.5 µM	1.57 µM	5.46 µM	5.31 µM	11.8 µM	3.99 µM	8.55 µM	1.84 µM	9.68 µM
Cc1cc(C#Cc2ccc(C(C)(C)C)cc2)ccc1-n1c(/C=C/c2ccc(O)cc2O)nc2ccccc2c1=O	3.55 µM	12.5 µM	2.39 µM	9.06 µM	1.49 µM	2.87 µM	3.06 µM	9.59 µM	3.15 µM	14.7 µM	2.83 µM	11.1 µM	1.82 µM	3.75 µM	2.17 µM	8.25 µM	4.37 µM	16.5 µM	3.1 µM	26.9 µM
N#CCN1CCn2c1nsc2=S	> 100 µM	> 100 µM	55.3 µM	> 100 µM	> 100 µM	> 100 µM	> 100 µM	> 100 µM	> 100 µM	> 100 µM	> 100 µM	> 100 µM	> 100 µM	> 100 µM	> 100 µM	> 100 µM	> 100 µM	> 100 µM	> 100 µM	> 100 µM
